What was measured:
COX-1 = target: T1, COX-1 (Canis lupus familiaris, UniProt Q8HZR1); conditions: cited from earlier work
T1 sequence (Q8HZR1 28-603): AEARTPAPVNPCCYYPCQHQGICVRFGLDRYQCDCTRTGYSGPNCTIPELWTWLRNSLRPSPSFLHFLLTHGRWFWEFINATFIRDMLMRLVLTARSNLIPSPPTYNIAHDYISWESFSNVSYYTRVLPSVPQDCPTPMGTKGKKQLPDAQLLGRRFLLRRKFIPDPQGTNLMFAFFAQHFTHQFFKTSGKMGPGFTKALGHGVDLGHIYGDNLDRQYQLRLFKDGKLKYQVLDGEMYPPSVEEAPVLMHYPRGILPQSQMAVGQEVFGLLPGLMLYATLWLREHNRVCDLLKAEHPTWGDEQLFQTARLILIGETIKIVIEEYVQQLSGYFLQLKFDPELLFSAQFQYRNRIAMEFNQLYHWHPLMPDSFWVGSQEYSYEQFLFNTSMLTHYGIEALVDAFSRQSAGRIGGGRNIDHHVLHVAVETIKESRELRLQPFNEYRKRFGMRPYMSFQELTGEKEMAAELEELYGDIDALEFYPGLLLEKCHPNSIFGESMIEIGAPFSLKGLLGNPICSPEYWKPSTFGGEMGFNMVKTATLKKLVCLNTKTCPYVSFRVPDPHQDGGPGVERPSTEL

COX-2 = target: T2, COX-2 (Canis lupus familiaris, UniProt Q8SPQ9); conditions: canine, relative to COX-1 column; cited from earlier work
T2 sequence (Q8SPQ9 18-604): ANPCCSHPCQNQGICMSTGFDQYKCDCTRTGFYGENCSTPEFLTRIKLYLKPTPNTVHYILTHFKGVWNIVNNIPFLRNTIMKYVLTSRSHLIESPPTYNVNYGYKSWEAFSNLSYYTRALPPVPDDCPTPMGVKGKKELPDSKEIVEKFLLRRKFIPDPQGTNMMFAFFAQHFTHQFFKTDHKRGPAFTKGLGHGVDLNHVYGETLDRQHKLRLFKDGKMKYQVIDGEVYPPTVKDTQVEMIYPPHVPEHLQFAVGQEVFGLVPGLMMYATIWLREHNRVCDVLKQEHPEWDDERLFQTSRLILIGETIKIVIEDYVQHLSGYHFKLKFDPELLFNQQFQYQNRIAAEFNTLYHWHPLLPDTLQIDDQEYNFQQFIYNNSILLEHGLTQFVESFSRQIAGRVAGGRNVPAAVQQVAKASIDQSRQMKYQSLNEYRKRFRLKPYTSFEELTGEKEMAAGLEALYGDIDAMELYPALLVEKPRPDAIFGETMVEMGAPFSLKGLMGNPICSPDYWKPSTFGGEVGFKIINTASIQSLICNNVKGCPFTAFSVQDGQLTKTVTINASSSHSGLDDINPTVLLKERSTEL

tetrameric avidin [1] = target: T3, tetrameric avidin (Gallus gallus, UniProt P02701); test: RPM (x-ray fluorescence) measurement of sulfur in avidin-biotin complex versus avidin; type: binding; conditions: 500 micrograms avidin, 0.20 millimolar biotin, pH 8.0, after ultrafiltration
T3 construct: purchased Sigma-Aldrich
Excerpt: Previous studies have shown that the ratio of sulfur in avidin-biotin:avidin is 19.5:16, or 1.22, see Green N. Mex. Purification of Avidin. Meth Enzymol. 1970, XVIII(A):414-417. […] We treated an avidin control sample identically. We used RPM to measure the sulfur content of the avidin-biotin complex and the avidin. We confirmed that the amount of avidin in each sample was identical using bicinchoninic acid protein assay kit (Pierce). As predicted, the avidin-biotin complex contained 1.2 times the sulfur than the avidin alone as measured by RPM.

tetrameric avidin [2] = target: T3, tetrameric avidin; conditions: previous studies; cited from earlier work
avidin = avidin (Gallus gallus, UniProt P02701); conditions: 200 micrograms avidin and 0.20 millimolar LPA, same filtering
Method: […] We diluted this sample to 0.75 ml in TRIS buffer (pH 8.0), centrifuged for 2 hours at 7000 g, and repeated this process twice.

T3 sequence (P02701 25-152): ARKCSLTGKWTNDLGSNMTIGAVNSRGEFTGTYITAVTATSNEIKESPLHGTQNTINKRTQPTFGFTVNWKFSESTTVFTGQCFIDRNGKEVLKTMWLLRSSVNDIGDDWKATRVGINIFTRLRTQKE
Chain of avidin (P02701 25-152): as above

## CC(C(=O)O)c1cccc(C(=O)c2ccccc2)c1 (stereo not drawn) [Ketoprofen]
COX-1; according to TABLE 3
  selectivity in favor of COX-1 versus COX-2: 1 to 0.6
COX-1; canine, relative to COX-2 column
  selectivity data, COX-1: 1
COX-2
  selectivity data, COX-2: .6

## O=C(O)CCCC[C@@H]1SC[C@@H]2NC(=O)N[C@@H]21 [biotin]
Tetrameric avidin [1]
  sulfur in avidin-biotin complex relative to avidin alone as measured by RPM: 1.2 times
Tetrameric avidin [2]
  ratio of sulfur in avidin-biotin:avidin: 1.22

## leucine phosphonic acid [LPA]
avidin
  phosphorus observed in control samples: no phosphorus was observed

— US10877035B2, “Advanced drug development and manufacturing” (ICAGEN, LLC, priority 2006, dated 2020)
